From publication PMC11348715 (Chemical Science, 2024)

Assay: Caco-2 permeability assay
Format: in vitro ADME
Settings: human

Papp A→B at 10 µM [×10⁻⁶ cm/s]	Structure (SMILES)
1.59	C[C@H]1O[C@@H](O[C@H]2[C@@H](O)C[C@H](O[C@H]3[C@@H](O)C[C@H](O[C@H]4CC[C@@]5(C)[C@H](CC[C@@H]6[C@@H]5C[C@@H](O)[C@]5(C)[C@@H](C7=CC(=O)OC7)CC[C@]65O)C4)O[C@@H]3C)O[C@@H]2C)C[C@H](O)[C@@H]1O [digoxin]
19.8	COCCc1ccc(OCC(O)CNC(C)C)cc1 (centres unmarked) [metoprolol]
